Source: patent publication US20210116454A1, “METHODS FOR TREATING A HEMATOLOGICAL CANCER AND THE USE OF COMPANION BIOMARKERS FOR 2-(2,6-DIOXOPIPERIDIN-3-YL)-4-((2-FLUORO-4-((3-MORPHOLINOAZETIDIN-1-YL)METHYL)BENZYL)AMINO)ISOINDOLINE-1,3-DIONE” (CELGENE CORPORATION, priority 2019, published 2021)

Legend:
[1] = test system: DoxoR cell lines; assay: Doxorubicin-resistant (DoxoR) versus matching parental DLBCL lines; assay type: cell-based; conditions: DoxoR versus matching parental cells
Procedure: The activity of Compound 1 was also evaluated in cell lines with acquired resistance to doxorubicin (Table 4). Doxorubicin-resistant cell lines (DoxoR) were generated by culturing the parental cell lines in vitro with increasing concentrations of doxorubicin for a long period of time (˜9 to 18 months) until they were able to grow in the presence of a relatively high concentration of doxorubicin (1 μM). Matching parental (M-Parent) cells were generated by maintaining the parental cells in culture without treatment for the same amount of time (˜9 to 18 months). The growth-inhibitory effect of doxorubicin on parental cells and the corresponding resistant cells was evaluated by measuring the number of viable cells and extent of apoptosis by 7-AAD exclusion and Annexin V staining using flow cytometry.

[2] = test system: SU-DHL-4; assay: CellTiter-Glo (CTG) antiproliferative assay, 5-day; assay type: cell-based; conditions: Homo sapiens, 120 h; SU-DHL-4, 5-day assay, n = 6
Procedure: To evaluate the activity of both Compound 1 and Compound 2 in DLBCL cells, a CellTiter-Glo (CTG) assay was performed to measure the antiproliferative activity.

[3] = test system: SU-DHL-2^CRBN−/− cells; assay: Western blot time- and concentration-response in cereblon knockout cells; assay type: cell-based
Excerpt: However, Compound 1 had no activity in SU-DHL-2^CRBN−/− cells, indicating the requirement of cereblon for induction of apoptosis by Compound 1 in DLBCL (FIG. 5 C).

[4] = test system: Karpas-422 cells; assay: Western blot of substrates and downstream proteins; assay type: cell-based
Procedure: (§1) To confirm that the rapid degradation of substrates and induction of apoptosis by Compound 1 is not unique to SU-DHL2 cells, TMD8 (ABC cell line) and Karpas-422 (GCB-cell line) cells were treated with vehicle control (DMSO) or Compound 1 at the times and concentrations indicated (FIG. 6).
(§2) In a second experiment, we confirmed that Compound 1 (100 nM) treatment of TMD8 produced a large reduction of Aiolos, Ikaros, and ZFP91 at the 24-hour timepoint. […] In Karpas-422 cells, Compound 1 also produced a reduction of Aiolos, Ikaros, and ZFP91 at the 24-hour timepoint (FIG. 6, panel D). At the 48-hour timepoint, Compound 1 increased the abundance of the proliferation inhibitor p21 and the interferon-stimulated genes IRF7, IFIT3, and DDX58, and reduced the expression of MYC (FIG. 6, panel D).

[5] = test system: TMD8 cells; assay: Western blot of substrates and downstream proteins; assay type: cell-based
Procedure: as §1, §2

[6] = test system: CRBN^WT and CRBN^−/− DLBCL cells; assay: Proliferation of CRBN^WT and CRBN^−/− DLBCL cells (six lines); assay type: cell-based
Excerpt: The activated B-cell (ABC) and MYC/BCL2 double expressor cell lines SU-DHL-2 and RIVA, the germinal center B-cell (GCB) and MYC/BCL2 double hit cell lines (and expressing BCL6) Karpas-422, SU-DHL-10, WSU-DLCL2, and the primary mediastinal B-cell lymphoma (PMBL) cell line Farage were infected with a CAS9 expressing lentivirus construct to generate the control CAS9 expressing cells. The Cas9 cells had wild type cereblon expression (CRBN^WT).
To generate the cereblon knock out cells (CRBN^−/−), the individual control CAS9 cells were infected with a construct expressing a subgenomic single guide RNA (sgRNA). Western blot analysis confirmed the absence of cereblon protein in the CRBN^−/− cells, relative to the levels of the housekeeping protein β-tubulin. The CRBN^WT and CRBN^−/− cells were treated with increasing concentrations of Compound 1 for five days.

[7] = test system: endothelial cells, T- and B-lymphocytes, coronary smooth muscle cells, and fibroblasts; assay: BioMAP Diversity PLUS Panel, antiproliferative effects; assay type: cell-based, human
Procedure: The BioMAP Diversity PLUS Panel was assessed after treatment with Compound 1. The X-axis lists the quantitative protein-based biomarker readouts measured in each system. The Y-axis represents a log-transformed ratio of the biomarker readouts for the drug-treated sample (n=1) over vehicle controls (n≥6). The grey region around the Y-axis represents the 95% significance envelope generated from historical vehicle controls. Biomarker activities were annotated when 2 or more consecutive concentrations change in the same direction relative to vehicle controls, are outside of the significance envelope, and have at least one concentration with an effect size >20% (log 10 ratio >0.1). Antiproliferative effects are indicated by a thick grey arrow.
The activity of Compound 1 was profiled in a panel of human primary cell-based assays, modeling complex tissue and disease biology of organs (vasculature, immune system, skin, lung) and general tissue biology using the BioMAP System (DiscoveRx, Fremont, Calif.).
The BioMAP System consists of twelve primary human monoculture or co-culture systems in stimulated and non-stimulated control conditions (FIG. 4, panel A). When tested at 0.01, 0.1, 1, and 10 μM, Compound 1 mediated changes in key biomarker activities. […]

[8] = TMD8, 100 nM, 24-hour timepoint

SMILES	shifts in IC50 values for doxorubicin in DoxoR lines [1]	IC50 [2] [µM]	activity in cereblon knockout cells [3]	Ikaros, Aiolos, and ZFP91 protein expression ([4]; Karpas-422, 10 and 100 nM, entire course of treatment)	MYC reduction ([4]; Karpas-422, after 72 hours) [%]	BCL6 reduction [5, 8] [%]	IRF4 reduction [5, 8] [%]	MYC reduction [5, 8] [%]	Ikaros, Aiolos, and ZFP91 protein expression ([5]; TMD8, 10 and 100 nM, entire course of treatment)	IC50 ([6]; 120 h, six DLBCL lines, five days, read-out: IC50 in control CAS9 expressing cells (CRBN^WT)) [µM]	effect of CRBN knock-out on antiproliferative activity ([6]; CRBN^−/− cells)	antiproliferative effects in BioMAP systems [7]
COc1cccc2c1C(=O)c1c(O)c3c(c(O)c1C2=O)C[C@@](O)(C(=O)CO)C[C@@H]3O[C@H]1C[C@H](N)[C@H](O)[C@H](C)O1 [Doxorubicin, reference compound]	more than 100 fold											
O=C1CC[C@H](N2C(=O)c3cccc(NCc4ccc(CN5CC(N6CCOCC6)C5)cc4F)c3C2=O)C(=O)N1 [Compound 1, (S)-2-(2,6-dioxopiperidin-3-yl)-4-((2-fluoro-4-((3-morpholinoazetidin-1-yl)methyl)benzyl)amino)isoindoline-1,3-dione]		0.022	no activity	complete suppression	50	65	90	75	complete suppression	0.0025 to 0.04	blocked the antiproliferative activity	selectively antiproliferative
